Data: patent US20040024024A1, “Aromatic sulfone hydroxamates and their use as protease inhibitors” (priority 2001, published 2004)
Blank lines part the entries; values can stand above or below the compound they belong to.

Experiments:
Experiment in all cases: In vitro MMP inhibition, IC50 determination (fluorogenic substrate I)
Assay type in all cases: biochemical
Human recombinant MMP-14 = molecular target: T1, Human recombinant MMP-14 (Homo sapiens, UniProt P50281)
T1 construct: The catalytic domain enzyme was expressed in E. coli inclusion bodies, solubilized in urea; made in house
Procedure, shortened: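 Catalytic-domain MMP-14, expressed in E. coli and refolded, activated with APMA or trypsin; compounds incubated at room temperature with 4 μM fluorogenic substrate I (MCA-PLGL-Dpa-AR-NH2) in Tris/NaCl/CaCl2 buffer, pH 7.5. Fluorescence at ex 328/em 415 nm; IC50 from loss of fluorescence versus inhibitor concentration.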

Human recombinant MMP-2 = molecular target: T2, Human recombinant MMP-2 (Homo sapiens, UniProt P08253)
T2 construct: made in house; host or cells: MMP-2-transfected p2AHT2 cells
T2 sequence (P08253 110-660): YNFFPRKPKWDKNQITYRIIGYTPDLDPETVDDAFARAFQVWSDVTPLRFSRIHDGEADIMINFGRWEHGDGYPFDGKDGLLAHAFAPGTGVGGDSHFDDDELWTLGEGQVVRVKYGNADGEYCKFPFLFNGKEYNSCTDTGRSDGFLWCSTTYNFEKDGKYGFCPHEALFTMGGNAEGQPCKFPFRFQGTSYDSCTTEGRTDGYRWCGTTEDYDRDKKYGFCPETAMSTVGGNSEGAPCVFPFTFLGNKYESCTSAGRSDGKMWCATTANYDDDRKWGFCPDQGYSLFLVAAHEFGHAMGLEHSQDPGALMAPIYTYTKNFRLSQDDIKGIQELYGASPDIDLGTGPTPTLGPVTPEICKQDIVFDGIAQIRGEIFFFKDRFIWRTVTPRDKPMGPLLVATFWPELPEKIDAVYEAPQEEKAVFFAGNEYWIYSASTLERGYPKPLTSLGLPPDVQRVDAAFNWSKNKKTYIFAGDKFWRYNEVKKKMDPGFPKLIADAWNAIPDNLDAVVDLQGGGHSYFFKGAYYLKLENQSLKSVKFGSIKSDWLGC
Procedure, shortened: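 APMA- or trypsin-activated recombinant MMP-2 was incubated at room temperature with serial inhibitor dilutions in Tris buffer pH 7.5 (100 mM NaCl, 10 mM CaCl2, 0.05% Brij), with DMSO from 1% stocks, and 4 μM substrate I. Cleavage was read by fluorescence at 328/415 nm; IC50 was taken from the loss of fluorescence versus inhibitor concentration.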

Human recombinant MMP-9 = molecular target: T3, Human recombinant MMP-9 (Homo sapiens, UniProt P14780)
T3 construct: made in house; host or cells: MMP-9-transfected HT1080 cells (spent media)
T3 sequence (P14780 107-707 limits assumed): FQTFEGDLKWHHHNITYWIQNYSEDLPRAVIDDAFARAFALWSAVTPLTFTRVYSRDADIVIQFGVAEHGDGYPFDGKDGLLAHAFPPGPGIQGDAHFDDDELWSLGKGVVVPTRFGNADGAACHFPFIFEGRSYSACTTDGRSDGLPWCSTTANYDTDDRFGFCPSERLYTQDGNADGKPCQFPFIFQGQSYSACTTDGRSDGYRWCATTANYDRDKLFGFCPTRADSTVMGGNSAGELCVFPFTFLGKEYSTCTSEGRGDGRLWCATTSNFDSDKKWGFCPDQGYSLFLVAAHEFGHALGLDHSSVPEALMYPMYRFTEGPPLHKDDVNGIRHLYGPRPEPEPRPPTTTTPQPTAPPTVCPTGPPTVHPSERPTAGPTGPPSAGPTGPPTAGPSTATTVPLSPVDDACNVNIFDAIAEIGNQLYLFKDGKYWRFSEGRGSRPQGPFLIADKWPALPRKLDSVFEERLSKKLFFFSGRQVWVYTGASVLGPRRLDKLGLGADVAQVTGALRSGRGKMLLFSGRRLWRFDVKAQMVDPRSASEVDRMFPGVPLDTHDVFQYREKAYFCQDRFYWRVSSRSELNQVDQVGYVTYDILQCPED
Procedure, shortened: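 MMP-9 proenzyme purified from transfected HT1080 cell media, activated with APMA or trypsin. Compound dilutions in pH 7.5 Tris/NaCl/CaCl2 buffer with 0.05% polyoxyethylene 23 lauryl ether, incubated at room temperature with 4 μM MCA/Dpa substrate I. IC50 from fluorescence loss (ex 328, em 415 nm) versus inhibitor concentration.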

Human recombinant MMP-1 = molecular target: T4, Human recombinant MMP-1 (Homo sapiens, UniProt P03956)
T4 construct: made in house; host or cells: MMP-1-transfected HT-1080 cells (spent media)
T4 sequence (P03956 100-469): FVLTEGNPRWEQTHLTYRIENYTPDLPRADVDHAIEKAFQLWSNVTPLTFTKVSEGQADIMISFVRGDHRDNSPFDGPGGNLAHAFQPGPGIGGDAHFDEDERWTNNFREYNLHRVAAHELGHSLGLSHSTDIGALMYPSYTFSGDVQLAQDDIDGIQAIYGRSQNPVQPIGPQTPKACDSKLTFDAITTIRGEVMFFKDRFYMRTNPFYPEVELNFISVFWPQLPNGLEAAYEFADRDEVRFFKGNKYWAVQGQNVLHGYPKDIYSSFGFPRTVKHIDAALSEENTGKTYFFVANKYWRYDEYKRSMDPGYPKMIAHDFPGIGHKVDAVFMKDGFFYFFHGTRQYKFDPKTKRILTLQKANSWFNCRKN
Procedure, shortened: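 APMA- or trypsin-activated enzyme, purified from spent media of transfected HT-1080 cells, incubated at room temperature with 4 μM MCA-Pro-Leu-Gly-Leu-Dpa-Ala-Arg-NH2 and graded inhibitor in Tris buffer pH 7.5 (10 mM CaCl2, 0.05% Brij). Cleavage read by fluorescence (ex 328/em 415 nm); IC50 from fluorescence reduction versus inhibitor concentration.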

Human recombinant MMP-13 = molecular target: T5, Human recombinant MMP-13 (Homo sapiens, UniProt P45452)
T5 construct: made in house; host or cells: baculovirus / insect cells
Procedure, shortened: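 Fluorescence at 415 nm (excitation 328 nm) reports Gly-Leu cleavage of 4 μM quenched methoxycoumarin peptide substrate I. Human recombinant MMP-13, activated by trypsin or APMA, was incubated at room temperature with varied inhibitor concentrations in pH 7.5 Tris/NaCl/CaCl2 buffer; IC50 derived from reduced fluorescence.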

[1] = value outside parentheses (Ki in parenthesis)
[2] = substrate (I) 4 μM, room temperature, values not in parenthesis

- IC50 (Human recombinant MMP-14; value outside parentheses): 2.65 µM
- IC50 (Human recombinant MMP-2; value outside parentheses): 0.0198 µM
- IC50 (Human recombinant MMP-9; value outside parentheses): 0.43 µM
- IC50 (Human recombinant MMP-1; value outside parentheses): > 10 µM
- IC50 (Human recombinant MMP-13; value outside parentheses): 0.00102 µM
SMILES: O=C(NO)C1(S(=O)(=O)c2ccc(OCC3Cc4cc(Oc5ccccc5)ccc4O3)cc2)CCOCC1 (centres unmarked) [Example 664]

- IC50 (Human recombinant MMP-14; value outside parentheses): 0.197 µM
- IC50 (Human recombinant MMP-2; value outside parentheses): < 0.0001 µM
- IC50 (Human recombinant MMP-9; value outside parentheses): 0.0136 µM
- IC50 (Human recombinant MMP-1; value outside parentheses): 1.52 µM
- IC50 (Human recombinant MMP-13; value outside parentheses): < 0.0001 µM
SMILES: COc1ccc(C(=O)CCOc2ccc(S(=O)(=O)C3(C(=O)NO)CCOCC3)cc2)cc1 [Example 494]

- IC50 (Human recombinant MMP-14; value outside parentheses): 0.651 µM
- IC50 (Human recombinant MMP-2; value outside parentheses): 0.0187 µM
- IC50 (Human recombinant MMP-9; value outside parentheses): 0.129 µM
- IC50 (Human recombinant MMP-1; value outside parentheses): > 10 µM
- IC50 (Human recombinant MMP-13; value outside parentheses): 0.00113 µM
SMILES: COC(=O)c1ccc(OCCOc2ccc(S(=O)(=O)C3(C(=O)NO)CCOCC3)cc2)cc1 [Example 651]

- IC50 (Human recombinant MMP-14; [1]): > 10 µM
- IC50 (Human recombinant MMP-2; [1]): 2.5 µM
- IC50 (Human recombinant MMP-9; [1]): > 10 µM
- IC50 (Human recombinant MMP-1; [1]): > 10 µM
- IC50 (Human recombinant MMP-13; [1]): 0.23 µM
SMILES: CCCC(CCOc1ccc(S(=O)(=O)C2(C(=O)NO)CCOCC2)cc1)S(C)(=O)=O (centres unmarked) [Example 476]

- IC50 (Human recombinant MMP-14; [1]): > 10 µM
- IC50 (Human recombinant MMP-2; [1]): 0.505 µM
- IC50 (Human recombinant MMP-9; [1]): 3.8 µM
- IC50 (Human recombinant MMP-1; [1]): > 10 µM
- IC50 (Human recombinant MMP-13; [1]): 0.011 µM
SMILES: CC(C)(COc1ccc(S(=O)(=O)C2(C(=O)NO)CCOCC2)cc1)CS(=O)(=O)Cc1ccccc1 [Example 438]

The remaining lines, values behind:

SMILES: CN(C)c1ccc(C(=O)NCCCOc2ccc(S(=O)(=O)C3(C(=O)NO)CCN(C4CC4)CC3)cc2)cc1 [Example 406]
- IC50 (Human recombinant MMP-14; [1]): > 10 µM
- IC50 (Human recombinant MMP-2; [1]): 2.2 µM
- IC50 (Human recombinant MMP-9; [1]): > 10 µM
- IC50 (Human recombinant MMP-1; [1]): > 10 µM
- IC50 (Human recombinant MMP-13; [1]): 0.004 µM

SMILES: O=C(NO)C1(S(=O)(=O)c2ccc(OCCCc3nc(-c4ccc([N+](=O)[O-])cc4)no3)cc2)CCOCC1 [Example 212]
- IC50 (Human recombinant MMP-14; value outside parenthesis): > 10 µM
- IC50 (Human recombinant MMP-2; value outside parenthesis): 0.0041 µM
- IC50 (Human recombinant MMP-9; value outside parenthesis): 0.212 µM
- IC50 (Human recombinant MMP-1; value outside parenthesis): 1.41 µM
- IC50 (Human recombinant MMP-13; value outside parenthesis): 0.0003 µM

SMILES: O=C(NO)C1(S(=O)(=O)c2ccc(OCCCSc3nc4ccccc4o3)cc2)CCOCC1 [Example 33, 4-[[4-[3-(2-benzoxazolylthio)propoxy]phenyl]sulfonyl]tetrahydro-N-N-hydroxy-2H-pyran-4-carboxamide]
- IC50 (Human recombinant MMP-14; [2]): 4.94 µM
- IC50 (Human recombinant MMP-2; [2]): 0.016 µM
- IC50 (Human recombinant MMP-9; [2]): 0.0079 µM
- IC50 (Human recombinant MMP-1; [2]): > 10 µM
- IC50 (Human recombinant MMP-13; [2]): 0.001 µM

SMILES: COc1ccc(C(=O)C(C)CCCOc2ccc(S(=O)(=O)C3(C(=O)NO)CCOCC3)cc2)cc1 (centres unmarked) [Example 26, tetrahydro-N-hydroxy-4-[[4-[[5-(4-methyloxyphenyl)-4-methyl-5-oxopentyl]oxy]phenyl]sulfonyl]-2H-pyran-4-carboxamide]
- IC50 (Human recombinant MMP-14; [2]): > 10 µM
- IC50 (Human recombinant MMP-2; [2]): 0.052 µM
- IC50 (Human recombinant MMP-9; [2]): 4.43 µM
- IC50 (Human recombinant MMP-1; [2]): > 10 µM
- IC50 (Human recombinant MMP-13; [2]): 0.0034 µM

SMILES: CCCCOc1ccc(C(=O)NCCCOc2ccc(S(=O)(=O)C3(C(=O)NO)CCOCC3)cc2)cc1 [Example 364]
- IC50 (Human recombinant MMP-14; [1]): > 10 µM
- IC50 (Human recombinant MMP-2; [1]): 0.25 µM
- IC50 (Human recombinant MMP-9; [1]): > 10 µM
- IC50 (Human recombinant MMP-1; [1]): > 10 µM
- IC50 (Human recombinant MMP-13; [1]): 0.0018 µM

SMILES: COc1cccc(-c2nnc(CCCOc3ccc(S(=O)(=O)C4(C(=O)NO)CCOCC4)cc3)o2)c1 [Example 280]
- IC50 (Human recombinant MMP-14; value outside parenthesis): > 10 µM
- IC50 (Human recombinant MMP-2; value outside parenthesis): 0.17 µM
- IC50 (Human recombinant MMP-9; value outside parenthesis): 2.03 µM
- IC50 (Human recombinant MMP-1; value outside parenthesis): > 10 µM
- IC50 (Human recombinant MMP-13; value outside parenthesis): 0.0015 µM

SMILES: COc1ccc(C(=O)C(C)CCOc2ccc(S(=O)(=O)C3(C(=O)NO)CCOCC3)cc2)cc1 (centres unmarked) [Example 306]
- IC50 (Human recombinant MMP-14; [1]): > 10 µM
- IC50 (Human recombinant MMP-2; [1]): 0.0929 µM
- IC50 (Human recombinant MMP-9; [1]): 0.185 µM
- IC50 (Human recombinant MMP-1; [1]): > 10 µM
- IC50 (Human recombinant MMP-13; [1]): 0.0017 µM

SMILES: Cc1cc(C(=O)CCCCOc2ccc(S(=O)(=O)C3(C(=O)NO)CCOCC3)cc2)ccc1OC(C)C [Example 340]
- IC50 (Human recombinant MMP-14; [1]): > 10 µM
- IC50 (Human recombinant MMP-2; [1]): 0.253 µM
- IC50 (Human recombinant MMP-9; [1]): 5.59 µM
- IC50 (Human recombinant MMP-1; [1]): > 10 µM
- IC50 (Human recombinant MMP-13; [1]): 0.0019 µM
